# Source: a melting point compilation (Tetko et al.; mined from patent text by program, amines drawn as free bases though some values may be those of a salt)
row,Compound,melting point
1,O=C(NCCCn1cncn1)Nc1ccc(Cl)cc1,137 to 139 °C
2,CC(C)n1nc(-c2sc(NC(=O)Cn3ccnc3)nc2-c2ccccc2)ccc1=O,160 to 161 °C
3,C#CCOc1ccc(CCNC(=O)C(=NOC)c2ccc(Cl)c(Cl)c2)cc1OC,107 to 108 °C
4,N#CC1=C(C2CCCCC2=O)Nc2n[nH]cc2C1c1cccc(C#N)c1Br (stereo not drawn),273 °C
5,CC(C)(C)C(O)C(CCCCOc1ccccc1)n1cncn1 (stereo not drawn),79 to 81 °C
6,O=C(O)CCCCCCCCCC=Cc1ccco1,38 to 39 °C
7,CC1(C)CC(=C(c2ccc(O)cc2)c2ccc(OCCOCCO)cc2)CC(C)(C)C1,122 to 124 °C
8,O=C1OC(CCOc2cccc3ccccc23)C(O)=C1O (stereo not drawn),163 to 164 °C
9,O=C(Nc1ccc(Br)c2c1C(=O)c1ccccc1C2=O)c1ccccc1,300 °C
10,CN(C(=O)OC(C)(C)C)c1sc(-c2cncc(F)c2)nc1I,70 to 71 °C
11,COC(=O)CCC(=O)c1cccc(O)c1,102 to 103 °C
12,CN(C)c1ccc(-c2cnn(-c3cccc(C(=O)O)c3)c2)cc1,224 to 225 °C
13,O=C(N(Cc1cccnc1)c1ccc(Cl)cc1)C(F)(F)F,80 to 81 °C
14,NC1=NC(c2ccc(OC(F)(F)F)cc2)(c2cccc(-c3cccnc3F)c2)C2=NCCN12 (stereo not drawn),95 to 100 °C
15,CCC[C@H]1C(=O)N(S(=O)(=O)c2cccc3ccccc23)[C@H]2CCN(S(=O)(=O)CCCN3CCOCC3)[C@H]12 (relative stereo),146 to 148 °C
16,Cc1cc(S(=O)(=O)NCC(O)(CO)c2ccccc2)ccc1Cl (stereo not drawn),105 to 106 °C
17,CC1(C)OCCN1CCNc1ccc(NCCN2CCOC2(C)C)c2c1C(=O)c1c(O)ccc(O)c1C2=O,255 to 256 °C
18,Cc1ccc(S(=O)(=O)N2CCC(C#N)(c3ccc(Cl)cc3Cl)CC2)cc1,145 °C
19,N#Cc1[nH]c(Br)c(Br)c1Br,215 to 218 °C

row,Compound,melting point
1,N#Cc1cc(Cl)cc(Oc2ccc(CC(=O)Nc3ccc(S(N)(=O)=O)cc3Cl)cc2Br)c1,205 to 207 °C
2,CCCCCS(=O)(=O)NC(=O)CCc1cc(OCc2ccccc2)nn1Cc1ccc(Cl)cc1Cl,139 to 141 °C
3,CCCCN(CCCC)C(=O)/C=C/c1ccc(Cn2c(-c3ccc(F)cc3)c(C)c3cc(O)ccc32)cc1,180 °C
4,Cc1cc(C(=O)N2Cc3ccc(C(=O)N(CCO)CCO)n3Cc3ccccc32)ccc1-c1ccccc1C(F)(F)F,127 to 130 °C
5,CC(=O)n1c(C)c(-c2ccc(F)cc2)c2cccnc21,84 to 87 °C
6,CCCCc1oc2ccccc2c1C(=O)c1ccc(NS(=O)(=O)c2cccnc2)cc1,130 °C
7,Cc1nn(C)c(C(N)=O)c1[N+](=O)[O-],153 to 155 °C
8,CCOC(=O)CCc1cc(C(=O)c2cccc(C(=O)OCC)c2)ccc1O,68 to 70 °C
9,O=C1NCCN1Cc1ccc2ccccc2c1,149 to 152 °C
10,CN1CC(CCl)C(c2ccccc2)(c2ccccc2)C1=O (stereo not drawn),120 to 122 °C
11,CC(C)(C)OC(=O)N1Cc2ccc(COc3cccc4c3CN(C3CCC(=O)NC3=O)C4=O)cc2C1 (stereo not drawn),178 to 180 °C
12,CC(C)(C)C(=O)N1CC=C(C#Cc2ccc3c(c2)NC(=O)CC(c2cccc(C#N)c2)=N3)CC1,219 °C
13,Cn1c(=O)c(-c2c(Cl)cccc2Cl)cc2cnc(Nc3ccc4c(c3)OCO4)nc21,240 to 241 °C
14,CSc1ncc(F)c(N)n1,114 to 115 °C
15,C=CC(C)(C)C1=C(O)C(=O)c2ccccc2C1=O,60 °C
16,c1cc(-c2cnco2)nc(-c2cnco2)c1,190 to 191 °C
17,C[C@H](NC(=O)[C@H](Cc1ccccc1)NC(=O)CS)C(=O)O,172 to 174 °C
18,O=C(NCc1ccccc1)c1cn2c(=O)n(Cc3ccc(Cl)cc3)c(=O)cc2s1,> 220 °C
19,Nc1ccc2ccc(-c3ccc(Cl)c(Cl)c3)nc2n1,210 °C
